Measurements from patent US20260137698A1, “CYCLIN-DEPENDENT KINASE 7 INHIBITORS” (JOINT STOCK COMPANY «BIOCAD», priority 2022, published 2026).
Like-named read-outs stand apart in the source and are kept apart here.

Assays:
CDK7/Cyclin H/MNAT1 = CDK7/Cyclin H/MNAT1 (Homo sapiens, UniProt P50613); test: Inhibition of CDK7/Cyclin H/MNAT1 kinase activity (ADP-Glo); type: biochemical
How it was run: (§1)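 Kinase preincubated with compound (11 points, 4-fold steps from 50 μM) for 10 minutes at 25° C. in kinase buffer A with DTT, then reacted 40-60 minutes at 25° C. with ATP and CDKtide, Histone H1 or PDKtide substrate. ADP formation read by ADP-Glo luminescence; IC50 from four-parameter fit.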

CDK2/Cyclin A = CDK2/Cyclin A (Homo sapiens, UniProt P24941); test: Inhibition of CDK2/Cyclin A kinase activity (ADP-Glo); type: biochemical
How it was run: as §1

CDK9/Cyclin K = CDK9/Cyclin K (Homo sapiens, UniProt P50750); test: Inhibition of CDK9/Cyclin K kinase activity (ADP-Glo); type: biochemical
Sequence of CDK9/Cyclin K (P50750 whole entry): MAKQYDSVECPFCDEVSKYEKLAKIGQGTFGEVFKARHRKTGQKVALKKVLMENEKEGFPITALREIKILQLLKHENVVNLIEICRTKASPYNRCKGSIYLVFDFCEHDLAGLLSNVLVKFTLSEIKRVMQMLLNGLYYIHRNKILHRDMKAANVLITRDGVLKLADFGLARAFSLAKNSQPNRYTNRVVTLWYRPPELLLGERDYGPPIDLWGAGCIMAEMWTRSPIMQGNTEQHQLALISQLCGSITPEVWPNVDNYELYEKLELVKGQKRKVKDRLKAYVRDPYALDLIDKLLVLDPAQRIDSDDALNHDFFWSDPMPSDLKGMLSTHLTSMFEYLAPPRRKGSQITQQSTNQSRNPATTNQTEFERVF
Sequence of CDK9/Cyclin K (O75909 whole entry partner): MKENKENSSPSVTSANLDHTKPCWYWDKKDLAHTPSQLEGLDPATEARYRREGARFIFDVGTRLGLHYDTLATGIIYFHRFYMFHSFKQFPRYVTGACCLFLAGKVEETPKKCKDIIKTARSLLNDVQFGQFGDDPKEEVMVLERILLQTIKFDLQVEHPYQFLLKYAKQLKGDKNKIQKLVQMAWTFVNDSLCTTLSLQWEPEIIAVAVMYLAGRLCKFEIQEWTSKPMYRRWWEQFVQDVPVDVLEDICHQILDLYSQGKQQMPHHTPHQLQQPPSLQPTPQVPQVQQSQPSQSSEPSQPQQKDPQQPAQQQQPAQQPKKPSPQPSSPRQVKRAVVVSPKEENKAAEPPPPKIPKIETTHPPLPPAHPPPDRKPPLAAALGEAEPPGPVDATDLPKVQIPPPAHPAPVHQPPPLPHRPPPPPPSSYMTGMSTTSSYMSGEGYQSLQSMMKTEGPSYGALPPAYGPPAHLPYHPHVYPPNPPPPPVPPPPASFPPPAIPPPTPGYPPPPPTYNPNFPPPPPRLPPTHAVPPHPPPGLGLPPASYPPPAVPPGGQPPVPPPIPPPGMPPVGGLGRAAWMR
How it was run: as §1

[1] = test system: MDA-MB-468 (triple negative breast cancer); test: Antiproliferative assay on MDA-MB-468 cells (AlamarBlue, 96 h); type: cell-based; settings: Homo sapiens, mean value from several measurements
[2] = test system: NCl-H82 (small cell lung cancer); test: Antiproliferative assay on NCl-H82 cells (AlamarBlue, 120 h); type: cell-based; settings: mean value from several measurements
Method: The antiproliferative activity of CDK7 inhibitors according to the present invention was evaluated in a cell test using continuous cell cultures: MDA-MB-468 (triple negative breast cancer, ATCC® HTB-132™) and NCl-H82 (small cell lung cancer, ATCC® HTB-175™) using a viable AlamarBlue dye (Thermo Fisher Scientific Inc, order no. DAL1100). The cells were grown in DMEM (PanEco, order no. C330π) and RPMI-1640 (PanEco, order no. C330π), respectively. The basal growth medium was enriched with L-glutamine at a concentration of 2 mM (PanEco, order no. Φ032) and 10% fetal bovine serum (Gibco, order no. 16140-071). The night before measurement, MDA-MB-468 adherent cells were detached from plastic with a solution of trypsin-EDTA (PanEco, order no. Π039π), the solution was then inactivated by a DMEM complete medium, centrifuged at 1000 RPM (Eppendorf, 5804 R), a suspension of cells was prepared in a DMEM complete medium, introduced into 96-well culture plates (Corning Inc, order no. 3599) at 8×10^3 cells in 100 μl of medium per well. The next day, test compounds were dissolved in DMSO and diluted with a DMEM complete medium to a final concentration ranging from 50 μM to 10 pM. Diluted compounds in a volume of 50 μl were introduced into the plate wells with cells in triplicates (the final concentration of DMSO was no more than 1%) and incubated at 37° C. in an incubator with 5% CO2 for 96 hours. NCl-H82 suspension cell line was prepared on the day of the analysis. 10×10^3 cells in 100 μl of an RPMI-1640 complete medium were added to each well of a 96-well plate. The procedure for sample dilution is as described above. Cells with test compounds were incubated at 37° C. in an incubator with 5% CO2 for 120 hours. Following incubation, […] of AlamarBlue reagent (Thermo Fisher Scientific Inc., order no. DAL1100) was added to the wells, the contents of the plates were stirred in an orbital shaker (Biosan, Latvia), then further incubated for 5.5-6 hours at 37° C. in an incubator with 5% CO2. The number of viable cells was detected using the Infinite M200Pro microplate spectrophotometer (Tecan Group Ltd, Switzerland) by way of measuring a fluorescent signal at an excitation wavelength (λEx) of 540 nm and an emission wavelength (λEm) of 590 nm.
IC50 value was calculated using the Magellan software (Tecan Group Ltd, Switzerland) by approximating experimental points by four-parameter model with the optimization by Levenberg-Marquardt: […]

[3] = General cytotoxicity on primary differentiated HepaRG cells (72 h); type: cell-based; settings: human, general toxicity, mean value from several measurements
How it was run: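 Differentiated HepaRG cells, maintained a week in basal hepatic medium with maintenance/metabolism supplement, were plated at 25×10^3 cells/well overnight. Compounds (200 μM to 0.2 nM) were added for 72 h before viability readout.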

[4] = Passive membrane permeability through PAMPA artificial membrane, pH 7.4; type: in vitro ADME; settings: pH 7.4, 10 μmol, 20 hours at room temperature, mean of multiple measurements, read-out: PAMPA passive permeability Pe
Method: Passive membrane permeability of the compounds described in the present invention was determined using the PAMPA (parallel artificial membrane permeability assay) model at pH 7.4.
We used a 96-well plate (Corning® BioCoat® Pre-coated PAMPA Plate System, order no. 353015), composed of acceptor and donor parts with cell membrane-modeling PVDF filter pre-impregnated with a lecithin-phospholipid bilayer. The substance (at a concentration of 10 μmol) in a 0.01 M phosphate buffer with pH 7.4 was introduced into a donor well of the plate, and pure buffer was introduced into an acceptor well; afterwards, the both parts were combined and incubated for 20 hours at room temperature so that the compound was redistributed between the two wells and the membrane. Verapamil (USP, USA, order no. 1711202) and propranolol (MCE LLC, USA, cat. no. HY-B0573/CS-2680) were used as control compounds with high and medium permeability. Samples were analyzed by reversed-phase HPLC with UV detection (Agilent 1260 chromatograph with UV detector) by determining their peak areas in the donor and acceptor wells.
Permeability (Pe, cm/s) and retention factor (R, %) in the lipid bilayer were calculated using the formula:
[formula] [formula] • Co is donor-well concentration of the substance at the initial moment of time t (μM); • CA (t) is acceptor-well concentration of the substance at time t (μM); • Vd is donor-well volume (0.3 ml); • Va is acceptor-well volume (0.15 ml).
[formula] • A is filter area (0.3 cm^2); • t is incubation time (72000 s);

[5] = mean value from several measurements, read-out: IC50 CDK7/Cyclin H/MNAT
[6] = mean value from several measurements, read-out: IC50 CDK2/Cyclin A
[7] = mean value from several measurements, read-out: IC50 CDK9/Cyclin K

Sequence of CDK7/Cyclin H/MNAT1 (P50613 whole entry): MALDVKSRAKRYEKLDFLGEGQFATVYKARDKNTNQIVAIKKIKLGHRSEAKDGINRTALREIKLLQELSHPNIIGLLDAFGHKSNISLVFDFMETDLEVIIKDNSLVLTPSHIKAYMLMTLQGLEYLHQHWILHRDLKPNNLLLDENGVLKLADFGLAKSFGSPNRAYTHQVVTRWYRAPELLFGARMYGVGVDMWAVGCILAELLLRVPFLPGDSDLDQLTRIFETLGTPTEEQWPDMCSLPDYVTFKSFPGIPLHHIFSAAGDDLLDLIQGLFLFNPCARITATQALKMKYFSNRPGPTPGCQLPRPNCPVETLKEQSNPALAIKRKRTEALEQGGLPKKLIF
Sequence of CDK7/Cyclin H/MNAT1 (P51946 whole entry partner): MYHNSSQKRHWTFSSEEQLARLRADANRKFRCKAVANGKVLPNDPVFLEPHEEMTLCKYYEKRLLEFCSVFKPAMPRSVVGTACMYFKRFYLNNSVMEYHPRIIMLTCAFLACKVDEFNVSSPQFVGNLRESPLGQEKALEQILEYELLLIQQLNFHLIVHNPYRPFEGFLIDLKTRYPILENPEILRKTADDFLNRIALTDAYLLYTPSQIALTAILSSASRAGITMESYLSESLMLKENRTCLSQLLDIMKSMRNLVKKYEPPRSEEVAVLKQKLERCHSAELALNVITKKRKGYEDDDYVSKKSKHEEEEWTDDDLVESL
Sequence of CDK7/Cyclin H/MNAT1 (P51948 whole entry partner): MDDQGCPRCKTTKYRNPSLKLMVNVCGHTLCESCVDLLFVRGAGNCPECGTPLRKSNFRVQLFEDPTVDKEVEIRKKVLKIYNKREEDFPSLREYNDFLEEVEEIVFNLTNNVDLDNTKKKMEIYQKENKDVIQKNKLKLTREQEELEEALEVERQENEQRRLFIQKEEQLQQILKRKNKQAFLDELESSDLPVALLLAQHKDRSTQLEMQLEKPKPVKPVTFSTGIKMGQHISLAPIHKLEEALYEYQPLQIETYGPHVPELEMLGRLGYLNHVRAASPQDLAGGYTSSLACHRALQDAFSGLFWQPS

Compound	IC50 (CDK7/Cyclin H/MNAT1; [5]) [nM]	IC50 (CDK2/Cyclin A; [6]) [nM]	IC50 (CDK9/Cyclin K; [7]) [nM]	IC50 [1] [nM]	IC50 [2] [nM]	CC50 at 72 h [3] [nM]	Papp at 20 h, 10 μmol [4] [×10⁻⁶ cm/s]	IC50 (CDK7/Cyclin H/MNAT1; mean of multiple measurement series, ATP 10 μM, read-out: CDK7/Cyclin H/MNAT1 IC50) [nM]	IC50 (CDK2/Cyclin A; mean of multiple measurement series, ATP 50 μM, read-out: CDK2/Cyclin A IC50) [nM]	IC50 (CDK9/Cyclin K; mean of multiple measurement series, ATP 50 μM, read-out: CDK9/Cyclin K IC50) [nM]
O=C1NCCc2c(-c3nc(N[C@H]4CCCNC4)ncc3C(F)(F)F)c[nH]c21 [CDK7_814, 3-(2-{[(3S)-piperidin-3-yl]amino}-5-(trifluoromethyl)pyrimidin-4-yl)-1H,4H,5H,6H, 7H-pyrrolo[2,3-c]pyridin-7-one]	< 5	> 200	50 to 200	10 to 100	10 to 100	500 to 2000	< 1			
Cn1ccc2c(-c3nc(N[C@H]4CCCNC4)ncc3C(F)(F)F)c[nH]c2c1=O [CDK7_845, 6-methyl-3-(2-{[(3S)-piperidin-3-yl]amino}-5-(trifluoromethyl)pyrimidin-4-yl)-1H,6H,7H-pyrrolo[2,3-c]pyridin-7-one]	< 5	> 200	5 to 50	< 10	< 10	100 to 500	< 1			
CN1CC=Cc2c(-c3nc(N[C@H]4CCCNC4)ncc3C(F)(F)F)c[nH]c2C1=O [CDK7_929]	< 5	> 200	5 to 50	< 10	< 10	100 to 500	< 1			
Cn1nnnc1-c1cc(-c2nc(N[C@H]3CCCNC3)ncc2C(F)(F)F)c[nH]1 [CDK7_999, 4-[5-(1-methyl-1H-1,2,3,4-tetrazol-5-yl)-1H-pyrrol-3-yl]-N-[(3S)-piperidin-3-yl]-5-(trifluoromethyl) pyrimidin-2-amine]	< 5	> 200	5 to 50	10 to 100	100 to 1000	500 to 2000	< 1			
CN(C)C(=O)c1cc(-c2nc(N[C@H]3CCCNC3)ncc2C(F)(F)F)cn1C [CDK7_1017, N,N,1-trimethyl-4-(2-{[(3S)-piperidin-3-yl]amino}-5-(trifluoromethyl)py-rimidin-4-yl)-1H-pyrrole-2-carboxamide]	5 to 50	> 200	50 to 200	100 to 1000	> 1000	> 2000	1 to 5			
O=c1c2[nH]cc(-c3nc(N[C@H]4CCCNC4)ncc3C(F)(F)F)c2ccn1-c1nccs1 [CDK7_1058, 3-(2-{[(3S)-piperidin-3-yl]amino}-5-(trifluoromethyl)py-rimidin-4-yl)-6-(1,3-thiazol-2-yl)-1H,6H,7H-pyrrolo[2,3-c]pyridin-7-one]	< 5	> 200	5 to 50	< 10	< 10	500 to 2000	1 to 5			
Cc1nc(-c2cc(-c3nc(N[C@H]4CCCNC4)ncc3C(F)(F)F)c[nH]2)no1 [CDK7_1060, 4-[5-(5-methyl-1,2,4-oxadiazol-3-yl)-1H-pyrrol-3-yl]-N-[(3S)-piperidin-3-yl]-5-(trifluoromethyl)py-rimidin-2-amine]	< 5	> 200	5 to 50	10 to 100	10 to 100	100 to 500	5 to 10			
FC(F)(F)c1cnc(N[C@H]2CCCNC2)nc1-c1c[nH]c(-c2ccccn2)c1 [CDK7_1061, N-[(3S)-piperidin-3-yl]-4-[5-(pyridin-2-yl)-1H-pyrrol-3-yl]-5-(trifluoromethyl)py-rimidin-2-amine]	5 to 50		5 to 50	10 to 100	10 to 100	500 to 2000	1 to 5			
FC(F)(F)c1cnc(N[C@H]2CCCNC2)nc1-c1c[nH]c(-c2nnnn2C2CC2)c1 [CDK7_1102]	5 to 50	> 200	5 to 50	10 to 100	10 to 100	500 to 2000	1 to 5			
O=c1c2[nH]cc(-c3nc(N[C@H]4CCCNC4)ncc3C(F)(F)F)c2ccn1C1CC1 [CDK7_1105, 6-cyclopropyl-3-(2-{[(3S)-piperidin-3-yl]amino}-5-(trifluoromethyl)py-rimidin-4-yl)-1H,6H,7H-pyrrolo[2,3-c]pyridin-7-one]	< 5	> 200	5 to 50	< 10	10 to 100	100 to 500	< 1			
CC1(C)CC[C@H](Nc2ncc(C(F)(F)F)c(-c3c[nH]c4c3CCCN(C3CCCC3)C4=O)n2)CN1 [CDK7_1154, 7-cyclopentyl-3-(2-{[(3S)-6,6-dimethylpiperidin-3-yl]amino}-5-(trifluoromethyl)py-rimidin-4-yl)-1H,4H,5H,6H,7H, 8H-pyrrolo[2,3-c]azepin-8-one]	< 5	> 200	> 200	10 to 100	10 to 100	> 2000	5 to 10			
CC1(C)CC[C@H](Nc2ncc(C(F)(F)F)c(-c3c[nH]c4c3CCCN(CC3CCCC3)C4=O)n2)CN1 [CDK7_1155, 7-(cyclopentylmeth-yl)-3-(2-{[(3S)-6,6-dimethylpiperidin-3-yl]amino}-5-(trifluoromethyl)py-rimidin-4-yl)-1H,4H,5H,6H,7H, 8H-pyrrolo[2,3-c]azepin-8-one]	5 to 50	> 200	> 200	10 to 100	10 to 100	> 2000	5 to 10			
CC1(C)CC[C@H](Nc2ncc(C(F)(F)F)c(-c3c[nH]c4c3CCCN(C3CCC3)C4=O)n2)CN1 [CDK7_1226, 7-cyclobutyl-3-(2-{[(3S)-6,6-dimethylpiperidin-3-yl]amino}-5-(trifluoromethyl)py-rimidin-4-yl)-1H,4H,5H,6H,7H, 8H-pyrrolo[2,3-c]azepin-8-one]	< 5	> 200	> 200	10 to 100	10 to 100	> 2000	1 to 5	5.6	18600	760
